Like-named read-outs stand apart in the source and are kept apart here.
Key:
[1] = target: rat orexin 1 receptor (Rattus norvegicus, UniProt P56718); experiment: Rat orexin 1 receptor radioligand binding
Description: (§1) Data are analyzed using pc-Sandy macro and graphed on Graphpad Prism 5. For analysis, each concentration point is averaged from triplicate values and the averaged values are plotted on Graphpad Prism. The IC50 was determined by applying the following equation (GraphPad Prism 5.0, SanDiego) for one site competition where X=log (concentration) and Y=specific binding. Top denotes the total [^3H]-(1-(5-(2-fluoro-phenyl)-2-methyl-thiazol-4-yl)-1-((S)-2-(5-phenyl-(1,3,4)oxadiazol-2-ylmethyl)-pyrrolidin-1-yl)-methanone) binding, bottom denotes the nonspecific [^3H]-(1-(5-(2-fluoro-phenyl)-2-methyl-thiazol-4-yl)-1-((S)-2-(5-phenyl-(1,3,4)oxadiazol-2-ylmethyl)-pyrrolidin-1-yl)-methanone) binding. Graphpad Prism calculates Ki value from IC50 and the pre-determined Kd values for [^3H]-(1-(5-(2-fluoro-phenyl)-2-methyl-thiazol-4-yl)-1-((S)-2-(5-phenyl-(1,3,4)oxadiazol-2-ylmethyl)-pyrrolidin-1-yl)-methanone) and [3H]-EMPA. The Ki for each compound is then uploaded into 3DX. Each run comprises individual compounds in triplicate. The data in Table 1 and Table 2 represent averages from between 2-20 runs
Rat and Human Orexin 1 Receptor Radioligand Binding Studies
(§2) After centrifugation (2K×G, 5 min at 4° C.), the supernatant was aspirated and the pellets frozen and stored at −80° C. […] Each cell pellet from a 15 cm plate was resuspended in 10 mL, stored on ice, and homogenized for 45 sec prior to addition to the reactions. […] The final concentration of DMSO in the reactions is equal to or less than 0.1%. Total and nonspecific binding was determined in the absence and presence of 10 μM almorexant. The total volume of each reaction is 200 μL (20 μL of diluted compounds, 80 μL of [^3H]-(1-(5-(2-fluoro-phenyl)-2-methyl-thiazol-4-yl)-1-((S)-2-(5-phenyl-(1,3,4)oxadiazol-2-ylmethyl)-pyrrolidin-1-yl)-methanone) diluted in PBS and 100 μL of the cell suspension). […] The plates were washed 3 times by aspirating 30 ml PBS through the plates. Plates were dried in 55° C. oven for 60 min, scintillation fluid was added, and the radioactivity was counted on a Topcount (Packard).

[2] = target: human orexin 2 receptor (Homo sapiens (Human), UniProt O43614); experiment: Human orexin 2 receptor radioligand binding; settings: human orexin 2 receptor; averages of 2-20 runs; read-out: hOX2 Ki
Description: as §1
Human Orexin 2 Receptor Radioligand Binding Studies
as §2, with “HEK293 stably expressing human orexin 2 receptor (Genebank accession number NM_001526) were grown to confluency in DMEM (Hyclone, cat # SH30022), 10% FBS, 1× Pen/Strep, 1× NaPyruvate, 10 mM HEPES, 600 ug/ml G418 media on 150 cm^2 tissue culture plates, washed with 5 mM EDTA in PBS (HyClone Dulbecco's Phosphate Buffered Saline 1× with Calcium and Magnesium, Cat # SH30264.01, hereafter referred to simply as PBS) and scraped into 50 ml tubes. After” for “After”, “sec just” for “sec”, “[^3H]-EMPA” for “[^3H]-(1-(5-(2-fluoro-phenyl)-2-methyl-thiazol-4-yl)-1-((S)-2-(5-phenyl-(1,3,4)oxadiazol-2-ylmethyl)-pyrrolidin-1-yl)-methanone)”

[3] = rat orexin 1 receptor, averages of 2-20 runs, read-out: rOX1 Ki

human orexin 2 receptor, sequence (O43614 whole entry): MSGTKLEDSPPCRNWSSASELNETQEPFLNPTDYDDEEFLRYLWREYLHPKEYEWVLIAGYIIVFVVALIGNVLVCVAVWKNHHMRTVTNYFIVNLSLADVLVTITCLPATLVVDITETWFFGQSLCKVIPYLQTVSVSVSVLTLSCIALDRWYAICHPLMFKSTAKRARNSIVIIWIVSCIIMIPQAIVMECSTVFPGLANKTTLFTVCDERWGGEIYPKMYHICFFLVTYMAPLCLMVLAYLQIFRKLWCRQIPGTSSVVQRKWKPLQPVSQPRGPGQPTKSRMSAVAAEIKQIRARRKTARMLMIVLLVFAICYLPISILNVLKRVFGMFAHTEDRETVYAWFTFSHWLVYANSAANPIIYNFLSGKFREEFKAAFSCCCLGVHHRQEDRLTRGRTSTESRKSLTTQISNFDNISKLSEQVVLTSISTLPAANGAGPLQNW

Row | Ki [1, 3] [nM] | Ki [2] [nM] | Compound | Ki [1] [nM]
1 | > 10000 | > 10000 | Cc1nc2sccn2c1C(=O)N1CC2CC(Oc3ccc(C(F)(F)F)cn3)C1C2 (racemic) [Example 6, (R/S)-(6-methylimidazo[2,1-b]thiazol-5-yl)(6-((5-(trifluoromethyl)pyridin-2-yl)oxy)-2-azabicyclo[2.2.1]heptan-2-yl)methanone] | –
2 | – | 758 | O=C(c1cccc(F)c1-n1nccn1)N1CC2CCC1C(Oc1ccc(C(F)(F)F)cn1)C2 (racemic) [Example 249, (R/S)-(3-fluoro-2-(2H-1,2,3-triazol-2-yl)phenyl)(6-((5-(trifluoromethyl)pyridin-2-yl)oxy)-2-azabicyclo[2.2.2]octan-2-yl)methanone] | –
3 | – | 1000 | O=C(c1cccc(F)c1-n1nccn1)N1CC2CCC1C(Nc1cnc(C(F)(F)F)cn1)C2 (racemic) [Example 255, (R/S)-(3-fluoro-2-(2H-1,2,3-triazol-2-yl)phenyl)(6-((5-(trifluoromethyl)pyrazin-2-yl)amino)-2-azabicyclo[2.2.2]octan-2-yl)methanone] | –
4 | – | 633 | O=C(c1c(F)cccc1-c1ncccn1)N1C[C@H]2C[C@@H](Oc3ccc(C(F)(F)F)cn3)[C@@H]1C2 [Example 38, (2-fluoro-6-(pyrimidin-2-yl)phenyl)((1S,4R,6R)-6-((5-(trifluoromethyl)pyridin-2-yl)oxy)-2-azabicyclo[2.2.1]heptan-2-yl)methanone] | –
5 | 72 | – | COc1cccc(-c2ccn[nH]2)c1C(=O)N1C[C@H]2C[C@@H](Oc3ccc(C(F)(F)F)cn3)[C@@H]1C2 [Example 39, (2-methoxy-6-(1H-pyrazol-5-yl)phenyl)((1S,4R,6R)-6-((5-(trifluoromethyl)pyridin-2-yl)oxy)-2-azabicyclo[2.2.1]heptan-2-yl)methanone] | –
6 | 15 | – | COc1cccc(-c2ncccn2)c1C(=O)N1C[C@H]2C[C@@H](Oc3ccc(C(F)(F)F)cn3)[C@@H]1C2 [Example 40, (2-methoxy-6-(pyrimidin-2-yl)phenyl)((1S,4R,6R)-6-((5-(trifluoromethyl)pyridin-2-yl)oxy)-2-azabicyclo[2.2.1]heptan-2-yl)methanone] | –
7 | 5 | 225 | O=C(c1cc(F)ccc1-n1nccn1)N1C[C@H]2C[C@@H](Nc3ccc(C(F)(F)F)cn3)[C@@H]1C2 [Example 57, (5-fluoro-2-(2H-1,2,3-triazol-2-yl)phenyl)((1S,4S,6R)-6-((5-(trifluoromethyl)pyridin-2-yl)amino)-2-azabicyclo[2.2.1]heptan-2-yl)methanone] | –
8 | 320 | 1700 | O=C(c1cccc(F)c1-c1ncccn1)N1C[C@H]2C[C@@H](Oc3ncccc3C(F)(F)F)[C@@H]1C2 [Example 96, (3-fluoro-2-(pyrimidin-2-yl)phenyl)((1S,4R,6R)-6-((3-(trifluoromethyl)pyridin-2-yl)oxy)-2-azabicyclo[2.2.1]heptan-2-yl)methanone] | –
9 | – | 534 | O=C(c1cccc(F)c1-n1nccn1)N1C[C@@H]2CC[C@H]1[C@H](Nc1cnc(C(F)(F)F)cn1)C2 [Example 274, (3-fluoro-2-(2H-1,2,3-triazol-2-yl)phenyl)((1S,4R,6R)-6-((5-(trifluoromethyl)pyrazin-2-yl)amino)-2-azabicyclo[2.2.2]octan-2-yl)methanone] | –
10 | – | 207 | COc1cccc(-n2nccn2)c1C(=O)N1C[C@H]2C[C@@H](Oc3ccc(C(F)(F)F)cn3)[C@@H]1C2 [Example 289, (2-methoxy-6-(2H-1,2,3-triazol-2-yl)phenyl)((1S,4R,6R)-6-((5-(trifluoromethyl)pyridin-2-yl)oxy)-2-azabicyclo[2.2.1]heptan-2-yl)methanone] | –

Row | Compound | Ki [1, 3] [nM] | Ki [2] [nM] | Ki [1] [nM]
11 | O=C(c1ccccc1-n1nccn1)N1CC2CCC1C(Nc1cnc(C(F)(F)F)cn1)C2 (racemic) [Example 254, (R/S)-(2-(2H-1,2,3-triazol-2-yl)phenyl)(6-((5-(trifluoromethyl)pyrazin-2-yl)amino)-2-azabicyclo[2.2.2]octan-2-yl)methanone] | – | 307 | 12

— patent US9611277B2 (Janssen Pharmaceutica NV, priority 2013, dated 2017)
